For 34 compounds, GI50 and TGI results are on record in PubChem BioAssay (NCI).

Values joined by “and” are separate entries in the source; they are usually repeats but may differ in a detail not shown here. Equal entries are not always repeated.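 Where inhibition never reached the appropriate level, the endpoint shown equals the highest concentration tested. Otherwise, values were interpolated linearly from a five-concentration, 48-hour dose response in 96-well plates. Here, GI50 denotes the concentration required for 50% inhibition of growth. TGI: total growth inhibition.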

The assay has as its system MDA-MB-468 breast. Description: NCI-60 cell line screen, 48 h.
For `CC1(C)CCC[C@]23C(=O)O[C@](O)(C(=O)C4=C[C@@](C)(/C=C/CCCc5ccc6ccc7cccc8ccc5c6c78)CC[C@@]42O)[C@@H]13`, the GI50 is 196 nM and the TGI came to 409 nM.
On the same counts, the results for `C#CCN1C(=O)/C(=c2\sc3n(c2=O)C2C(NN=3)N(CC)C(=O)N2CC)c2ccccc21` (configuration not stated) are 331 nM and 3240 nM.
On the same counts, the results for `CCN1CCN(c2nc(NNC(=O)Cc3ccccc3)nc(N3CCN(C(c4ccccc4)c4ccccc4)CC3)n2)CC1` are 1950 nM and 4520 nM.
Taken in the same sequence, the figures for `S=c1nc(-c2ccccc2)oc(=NC2CCCCC2)n1C1CCCCC1` were 1970 nM and 4830 nM.
In the case of `CC(=O)Oc1ccc(OC(C)=O)c2ccccc12`, the GI50 was 477 nM and the TGI turned out to be 2190 nM.
On the same counts, the results for `C/C(=N\NC(N)=O)C(CN1CCCCC1)C(c1ccccc1)c1c(O)c2ccccc2oc1=O` (configuration not stated) are more than 100000 nM and more than 100000 nM.
Taken in the same sequence, the figures for `CCCCCCCCCCCCn1c(C)nc2ccccc21` were 601 nM and 19400 nM.
For the compound `CN1/C(=C\C(I)C(I)C2=[N+](C)c3ccccc3C2(C)C)C(C)(C)c2ccccc21` (configuration not stated), the GI50 was 72.3 nM and the TGI came out at 1240 nM.
Taken in the same sequence, the figures for `Nc1ncnc2c1c(C(F)(F)F)cn2[C@@H]1O[C@H](CO)[C@@H](O)[C@H]1O` were 242 nM and 2140 nM.
Taken in the same sequence, the figures for `COc1ccc(/C=C/c2c(C(=O)/C=C/c3ccc(Cl)cc3)c(C)nc3ccccc23)cc1` were 1790 nM and 3540 nM.
On the same counts, the results for `CCOC(=O)c1sc(-c2ccc(OS(=O)(=O)c3cccs3)c(C=O)c2)nc1C` are 1310 nM and 4950 nM.
For `COc1ccc(-c2nn(-c3cccc(Cl)c3)cc2C=C(C#N)C#N)cc1`, the GI50 was 1670 nM and the TGI was 4960 nM.
In the case of `CCCS(=O)(=O)Nc1ccc(F)c(C(=O)c2c[nH]c3ncc(-c4ccc(Cl)cc4)cc23)c1F`, the GI50 was 3550 nM and 5650 nM; the TGI is 20100 nM and > 10000 nM.
Consider `C[C@]12O[C@H](C[C@]1(O)CO)n1c3ccccc3c3c4c(c5c6ccccc6n2c5c31)CNC4=O`, for which the GI50 was 457 nM and 185 nM; the TGI is 2570 nM and 1650 nM.
For `COc1ccc(SC2c3cc(OC)c(OC)cc3Oc3nc(N)c(C#N)c(N)c32)cc1` (configuration not stated), the GI50 is 320 nM and the TGI came to 1530 nM.
Take `Nc1ccc(-c2nc3ccc4[nH]ncc4c3c3c2CCCC3)cc1F`: the GI50 is 126 nM and the TGI was determined as 625 nM.
With `Cn1nc(C(F)(F)F)c(-c2ccc(Cl)c(C(F)(F)F)c2)c1-c1ccc(OCc2ccc(Cl)cc2)cc1O`, the GI50 is 1340 nM and the TGI came to 3650 nM.
Turning to `COc1ccc(C(=O)c2cc(OC)c(OC)c(OC)c2)cc1OC(C)=O`, the GI50 was 754 nM.
Take `O=C(NCc1cccnc1)/C(=C\c1ccc(Br)cc1)S(=O)(=O)c1ccccc1`: the GI50 was 266 nM and the TGI was 933 nM.
Taken in the same sequence, the figures for `O=C1NC(=O)/C(=C/C=C/c2ccccc2)S1` were 10900 nM and 56000 nM.
Taken in the same sequence, the figures for `CC(=O)OCC1OC(OC2C(COC(C)=O)OC(OCCC[S-])C(OC(C)=O)C2OC(C)=O)C(OC(C)=O)C(OC(C)=O)C1OC(C)=O.[Au+].c1ccc(CN2[CH-]N(Cc3ccccc3)C(c3ccccc3)=C2c2ccccc2)cc1` (configuration not stated) were 2810 nM and 12400 nM.
Taken in the same sequence, the figures for `COc1cc(C)c(C(=O)O[C@H]2[C@H](O[C@H]3[C@@H](O)COC(O[C@H]4C[C@H]5[C@@H]6CC=C7C[C@@H](O)CC[C@]7(C)[C@H]6CC[C@]5(C)[C@H]4[C@H](C)C(=O)CCC(C)C)[C@@H]3OC(C)=O)OC[C@@H](O)[C@@H]2O)c(C)c1` (some centres not stated) were 17.1 nM and 1840 nM.
On to `CCSc1oc(-c2ccccc2)nc1[P+](c1ccccc1)(c1ccccc1)c1ccccc1`, for which the GI50 is 168 nM and the TGI came to 676 nM.
Taken in the same sequence, the figures for `O=C(/C=C/c1ccc(C(F)(F)F)cc1)c1ccc(Nc2nc(NCCO)nc(NCCO)n2)cc1` were 2020 nM and 5070 nM.
Taken in the same sequence, the figures for `N#Cc1c(NC(=O)c2ccccc2)sc2c1CCC(=O)C2` were 2190 nM and 6940 nM.
Taken in the same sequence, the figures for `CCN(CC)CCN1C(=O)c2c(c(C)c3c(oc4cc(O)ccc43)c2C)C1=O` were 1460 nM and 3010 nM.
`COc1ccc(/C(C)=C(\c2ccc(Cl)cc2)c2ccc(OCCN3CCCC3)cc2)cc1`: the GI50 was 4030 nM and the TGI was 8850 nM.
Taken in the same sequence, the figures for `Cl.[Pt].[c-]1ccccc1-c1ccccn1.c1ccc(P(c2ccccc2)C([PH+](c2ccccc2)c2ccccc2)[PH+](c2ccccc2)c2ccccc2)cc1` were 571 nM and 4210 nM.
Taken in the same sequence, the figures for `CC1(C)N=C(N)N=C(N)N1c1cccc(C#N)c1` were 2310 nM and more than 100000 nM.
Taken in the same sequence, the figures for `COc1ccc(-c2ccc3c(NC(=O)C4CC4)n[nH]c3n2)cc1` were more than 25000 nM and more than 25000 nM.
On to `COc1ccc(-c2ccc(/C=C/C(=O)NO)cc2)cc1`, for which the GI50 was 463 nM and the TGI was determined as 2620 nM.
Taken in the same sequence, the figures for `CC(C)C[C@H](NC(=O)[C@H](CCc1ccccc1)NC(=O)CN1CCOCC1)C(=O)N[C@@H](Cc1ccccc1)C(=O)N[C@@H](CC(C)C)C(=O)[C@@]1(C)CO1` were less than 13.5 nM and 36.2 nM.
On the same counts, the results for `O=C1c2ccccc2C(=O)c2c1ccc(C(Br)Br)c2[N+](=O)[O-]` are 541 nM and 2280 nM.
Take `CN(C)CCCNc1nn2c(=O)c3ccccc3nc2c2ccccc12`: the GI50 was 6230 nM and the TGI came out at 20000 nM.
